# Reference: PubChem BioAssay (NCI)
#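 In this assay, cells in 96-well plates receive the compound at five concentrations for 48 hours. Endpoints are linearly interpolated between the surrounding concentrations. TGI is the concentration that stops growth completely.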
# Columns and labels:
# Test in all cases: DTP human tumour cell line panel, 48 h
# EKVX NSCLC = test system: EKVX NSCLC
# KM12 colon = test system: KM12 colon
# OVCAR-4 ovarian = test system: OVCAR-4 ovarian
# MALME-3M melanoma = test system: MALME-3M melanoma
# HCT-116 colon = test system: HCT-116 colon
# A549 NSCLC = test system: A549 NSCLC
# OVCAR-5 ovarian = test system: OVCAR-5 ovarian
# RPMI-8226 leukemia = test system: RPMI-8226 leukemia
# TK-10 renal = test system: TK-10 renal
# OVCAR-8 ovarian = test system: OVCAR-8 ovarian
# MDA-MB-435 = test system: MDA-MB-435
# CCRF-CEM leukemia = test system: CCRF-CEM leukemia
# LOX IMVI melanoma = test system: LOX IMVI melanoma
# HOP-62 NSCLC = test system: HOP-62 NSCLC
# MCF7 breast = test system: MCF7 breast
# SR leukemia = test system: SR leukemia
# NCI-H23 lung = test system: NCI-H23 lung
# 786-0 renal = test system: 786-0 renal
# NCI/ADR-RES ovarian = test system: NCI/ADR-RES ovarian
# MOLT-4 leukemia = test system: MOLT-4 leukemia
# HS 578T breast = test system: HS 578T breast
# SK-MEL-28 melanoma = test system: SK-MEL-28 melanoma
# ACHN renal = test system: ACHN renal
# HCC-2998 colon = test system: HCC-2998 colon
# SF-539 CNS = test system: SF-539 CNS
# BT-549 breast = test system: BT-549 breast
# SK-OV-3 ovarian = test system: SK-OV-3 ovarian
# NCI-H226 lung = test system: NCI-H226 lung
# NCI-H522 lung = test system: NCI-H522 lung
# NCI-H460 lung = test system: NCI-H460 lung
# SF-295 CNS = test system: SF-295 CNS
# HCT-15 colon = test system: HCT-15 colon
# CAKI-1 renal = test system: CAKI-1 renal
# IGROV1 ovarian = test system: IGROV1 ovarian
# OVCAR-3 ovarian = test system: OVCAR-3 ovarian
# K-562 leukemia = test system: K-562 leukemia
# MDA-MB-231 breast = test system: MDA-MB-231 breast
# MDA-N = test system: MDA-N
# PC-3 prostate = test system: PC-3 prostate
# UO-31 renal = test system: UO-31 renal
# UACC-62 melanoma = test system: UACC-62 melanoma
# SNB-19 CNS = test system: SNB-19 CNS
# U251 CNS = test system: U251 CNS
# SF-268 CNS = test system: SF-268 CNS
# HL-60(TB) leukemia = test system: HL-60(TB) leukemia
# SNB-75 CNS = test system: SNB-75 CNS
# A498 renal = test system: A498 renal
# SW-620 colon = test system: SW-620 colon
# T-47D breast = test system: T-47D breast
# UACC-257 melanoma = test system: UACC-257 melanoma
# HT29 colon = test system: HT29 colon
# SK-MEL-2 melanoma = test system: SK-MEL-2 melanoma
# SK-MEL-5 melanoma = test system: SK-MEL-5 melanoma
# HOP-92 NSCLC = test system: HOP-92 NSCLC
# M14 melanoma = test system: M14 melanoma
# SN12C renal = test system: SN12C renal
# RXF 393 renal = test system: RXF 393 renal
# DU-145 prostate = test system: DU-145 prostate
# COLO 205 colon = test system: COLO 205 colon
compound,measurement,setting,value
CCCCOC(=O)C(=O)C(CCC(=O)c1ccc(C)cc1)C(=O)C=C(C)C (configuration not stated),TGI,EKVX NSCLC,> 100 µM
same,TGI,KM12 colon,> 100 µM
same,TGI,OVCAR-4 ovarian,> 100 µM
same,TGI,MALME-3M melanoma,> 100 µM
same,TGI,HCT-116 colon,> 100 µM
same,TGI,A549 NSCLC,> 100 µM
same,TGI,OVCAR-5 ovarian,> 100 µM
same,TGI,RPMI-8226 leukemia,> 100 µM
same,TGI,TK-10 renal,> 100 µM
same,TGI,OVCAR-8 ovarian,> 100 µM
same,TGI,MDA-MB-435,> 100 µM
same,TGI,CCRF-CEM leukemia,> 100 µM
same,TGI,LOX IMVI melanoma,> 100 µM
same,TGI,HOP-62 NSCLC,> 100 µM
same,TGI,MCF7 breast,> 100 µM
same,TGI,SR leukemia,> 100 µM
same,TGI,NCI-H23 lung,> 100 µM
same,TGI,786-0 renal,> 100 µM
same,TGI,NCI/ADR-RES ovarian,> 100 µM
same,TGI,MOLT-4 leukemia,> 100 µM
same,TGI,HS 578T breast,> 100 µM
same,TGI,SK-MEL-28 melanoma,> 100 µM
same,TGI,ACHN renal,> 100 µM
same,TGI,HCC-2998 colon,> 100 µM
same,TGI,SF-539 CNS,> 100 µM
same,TGI,BT-549 breast,> 100 µM
same,TGI,SK-OV-3 ovarian,> 100 µM
same,TGI,NCI-H226 lung,> 100 µM
same,TGI,NCI-H522 lung,> 100 µM
same,TGI,NCI-H460 lung,> 100 µM
same,TGI,SF-295 CNS,> 100 µM
same,TGI,HCT-15 colon,> 100 µM
same,TGI,CAKI-1 renal,> 100 µM
same,TGI,IGROV1 ovarian,> 100 µM
same,TGI,OVCAR-3 ovarian,> 100 µM
same,TGI,K-562 leukemia,> 100 µM
same,TGI,MDA-MB-231 breast,> 100 µM
same,TGI,MDA-N,> 100 µM
same,TGI,PC-3 prostate,> 100 µM
same,TGI,UO-31 renal,> 100 µM
same,TGI,UACC-62 melanoma,> 100 µM
same,TGI,SNB-19 CNS,> 100 µM
same,TGI,U251 CNS,> 100 µM
same,TGI,SF-268 CNS,> 100 µM
same,TGI,HL-60(TB) leukemia,> 100 µM
same,TGI,SNB-75 CNS,> 100 µM
same,TGI,A498 renal,> 100 µM
same,TGI,SW-620 colon,> 100 µM
same,TGI,T-47D breast,> 100 µM
same,TGI,UACC-257 melanoma,> 100 µM
same,TGI,HT29 colon,> 100 µM
same,TGI,SK-MEL-2 melanoma,> 100 µM
same,TGI,SK-MEL-5 melanoma,> 100 µM
same,TGI,HOP-92 NSCLC,> 100 µM
same,TGI,M14 melanoma,> 100 µM
same,TGI,SN12C renal,> 100 µM
same,TGI,RXF 393 renal,> 100 µM
CN(C)C(=S)N/N=C\C=N/NC(=S)N(C)C,TGI,EKVX NSCLC,> 100 µM
same,TGI,KM12 colon,> 100 µM
same,TGI,OVCAR-4 ovarian,> 100 µM
same,TGI,HCT-116 colon,> 100 µM
same,TGI,A549 NSCLC,> 100 µM
same,TGI,OVCAR-5 ovarian,> 100 µM
same,TGI,RPMI-8226 leukemia,> 100 µM
same,TGI,TK-10 renal,> 100 µM
same,TGI,OVCAR-8 ovarian,> 100 µM
same,TGI,MDA-MB-435,> 100 µM
same,TGI,LOX IMVI melanoma,> 100 µM
same,TGI,DU-145 prostate,> 40.7 µM
same,TGI,MCF7 breast,> 100 µM
same,TGI,NCI-H23 lung,> 58.8 µM
same,TGI,786-0 renal,> 100 µM
same,TGI,HS 578T breast,> 23.4 µM
same,TGI,SK-MEL-28 melanoma,> 100 µM
same,TGI,HCC-2998 colon,> 100 µM
same,TGI,COLO 205 colon,> 100 µM
same,TGI,SF-539 CNS,> 100 µM
same,TGI,BT-549 breast,> 100 µM
same,TGI,SK-OV-3 ovarian,> 100 µM
same,TGI,NCI-H226 lung,> 81.9 µM
same,TGI,NCI-H522 lung,> 85.3 µM
same,TGI,NCI-H460 lung,> 100 µM
same,TGI,SF-295 CNS,> 32.1 µM
same,TGI,HCT-15 colon,> 100 µM
same,TGI,CAKI-1 renal,> 100 µM
same,TGI,IGROV1 ovarian,> 100 µM
same,TGI,OVCAR-3 ovarian,> 100 µM
same,TGI,K-562 leukemia,> 100 µM
same,TGI,MDA-MB-231 breast,> 100 µM
same,TGI,MDA-N,> 100 µM
same,TGI,PC-3 prostate,> 100 µM
same,TGI,UO-31 renal,> 100 µM
same,TGI,UACC-62 melanoma,22 µM
same,TGI,SNB-19 CNS,> 100 µM
same,TGI,U251 CNS,> 100 µM
same,TGI,SF-268 CNS,> 20.2 µM
same,TGI,SNB-75 CNS,> 100 µM
same,TGI,A498 renal,34.5 µM
same,TGI,SW-620 colon,> 100 µM
same,TGI,T-47D breast,> 100 µM
same,TGI,UACC-257 melanoma,> 100 µM
same,TGI,HT29 colon,> 100 µM
same,TGI,SK-MEL-2 melanoma,> 100 µM
same,TGI,SK-MEL-5 melanoma,> 100 µM
same,TGI,HOP-92 NSCLC,> 100 µM
same,TGI,M14 melanoma,3.22 µM
same,TGI,SN12C renal,11.1 µM
